Test results from PMC12596218 (Journal of Lipid Research, 2025).
Numbering of substitutions follows the chain as printed. Values joined by “and” are separate entries in the source; they are usually repeats but may differ in a detail not shown here. Equal values may be shown once. Read-outs that look alike come from different tables or passages of the source.

How the values were obtained:
[1] = target: T1, NTCP M290T/I291V (NTCP→mAsbt) (Homo sapiens, UniProt Q14973, I291V/M290T); test: [3H]TC transport and inhibition assay, NTCP→mAsbt mutant in HEK293 cells; type: cell-based; conditions: 1 μM [3H]TC, 10 min
T1 construct: stably transfected with the full open reading frames of human NTCP, ASBT, SOAT, OATP1B1, OATP1B3, OATP2B1, and murine Asbt (mAsbt); expressed in transfected cells; host or cells: HEK293, stably transfected
T1 sequence (Q14973 1-349 M290T/I291V): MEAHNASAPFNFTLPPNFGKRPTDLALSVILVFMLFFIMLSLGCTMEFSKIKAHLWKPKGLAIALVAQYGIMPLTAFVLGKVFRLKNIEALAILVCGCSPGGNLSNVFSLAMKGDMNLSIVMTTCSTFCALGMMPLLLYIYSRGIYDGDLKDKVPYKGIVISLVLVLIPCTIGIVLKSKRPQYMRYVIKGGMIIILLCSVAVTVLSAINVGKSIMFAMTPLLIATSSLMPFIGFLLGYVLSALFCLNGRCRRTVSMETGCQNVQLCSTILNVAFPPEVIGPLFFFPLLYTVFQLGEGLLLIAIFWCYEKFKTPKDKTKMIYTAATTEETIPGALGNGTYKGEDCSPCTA
Method: Amplification was performed on a peqSTAR XS PEQLAB PCR cycler (Peqlab) with Pfu DNA polymerase (M774A; Promega) in 18 cycles under the following conditions: initial denaturation for 2 min at 95°C, denaturation for 30 s at 95°C, annealing for 1 min at 55°C, extension for 8 min and 30 s at 72°C, final elongation for 10 min at 72°C and final hold at 4°C. After amplification, the products were digested with DpnI (ER1701; Thermo Fisher Scientific) for 1 h at 37°C and transformed into TOP10 chemically competent E. coli (Thermo Fisher Scientific). Plasmids were isolated using a GeneJET Plasmid Miniprep Kit (Thermo Fisher Scientific) according to the manufacturer's protocol, and the generated point mutations were verified by DNA sequencing (Seqlab Microsynth).
Cells were seeded onto poly-L-lysine-coated 96-well plates, induced with 1 μg/ml tetracycline, and grown to confluence over 72 h at 37°C. Then, cells were washed with tempered (37°C) phosphate-buffered saline (PBS, containing 137.0 mM NaCl, 2.7 mM KCl, 1.5 mM KH2PO4, and 7.3 mM Na2HPO4, at pH 7.4) and preincubated with 80 μl sodium transport buffer (STB, containing 142.9 mM NaCl, 4.7 mM KCl, 1.2 mM MgSO4, 1.2 mM KH2PO4, 1.8 mM CaCl2, and 20.0 mM HEPES, at pH 7.4) for 5 min at 37°C. For inhibition studies, the medium was replaced by 80 μl STB containing the respective inhibitor or solvent alone and cells were further incubated for 5 min at 37°C. Transport experiments were started by adding 20 μl of a 5-fold concentrated substrate solution (solved in STB). For transport experiments under sodium-free conditions the same buffer composition was used as for STB, but sodium chloride was substituted with equimolar concentrations of choline chloride as previously reported ([20], [24]). Transport experiments were stopped by washing twice with ice-cold PBS and the plates were kept cool on ice until adding the lysis buffer [1% sodium dodecyl sulfate (SDS) and 1 N NaOH]. Then, the cell-associated radioactivity of the respective tritium-labeled substrate or ligand was quantified by liquid scintillation counting using MicroScint-20 scintillation cocktail (Revvity) in a Packard Microplate Scintillation Counter TopCount NXT (Packard Instrument Company). For IC50 transport inhibition measurements, the mean uptake values measured in non-carrier-expressing HEK293 control cells were defined as 0% uptake control and were subtracted from all other values. Values from cells without inhibitor and solvent alone were set to 100%. Finally, all net transport data were expressed as uptake or binding as % of control. All transport or inhibition graphs were generated with GraphPad Prism 6 (GraphPad). Determination of half maximal inhibitory concentrations (IC50) was done by nonlinear regression analysis using the equation log (inhibitor) versus response—variable slope settings. All data points of the IC50 curves represent means ± SD of quadruplicate determinations. For Km measurements, BS uptake in the absence of sodium was regarded as carrier-independent unspecific uptake and was subtracted from the transport rates in the presence of sodium to obtain carrier-specific uptake rates (indicated as dashed lines). From the specific uptake rates, Michaelis Menten Km values were calculated by non-linear regression analysis.

NTCP [2] = target: T2, NTCP (Homo sapiens, UniProt Q14973); test: [3H]rosuvastatin transport inhibition assay in NTCP-HEK293 cells; type: cell-based; conditions: 1 μM [3H]rosuvastatin, 10 min; two independent experiments; read-out: IC50 NTCP [3H]rosuvastatin uptake
T2 construct: stably transfected with the full open reading frames of human NTCP, ASBT, SOAT, OATP1B1, OATP1B3, OATP2B1, and murine Asbt (mAsbt); expressed in transfected cells; host or cells: HEK293 (Flp-In), stably transfected, tetracycline-induced
T2 sequence (Q14973 1-349): T1 sequence (Q14973 1-349 M290T/I291V) with T290M, V291I
From the text: (§1) Human embryonic kidney HEK293 cells, stably transfected with the full open reading frames of human NTCP, ASBT, SOAT, OATP1B1, OATP1B3, OATP2B1, and murine Asbt (mAsbt) were used as reported ([18], [20], [21], [22], [23]). The NTCP, ASBT, and mAsbt constructs were C-terminally tagged with the FLAG epitope, and the SOAT construct was C-terminally tagged with green fluorescent protein. Non-transfected Flp-In HEK293 cells (Thermo Fisher Scientific) served as the control. All cell lines were maintained at 37°C, 5% CO2 and 95% humidity in DMEM/F-12 medium (Thermo Fisher Scientific) supplemented with 10% fetal calf serum (Sigma-Aldrich), 4 mM L-glutamine (PAA) and penicillin/streptomycin (PAA). […]
(§2) Cells were seeded onto poly-L-lysine-coated 96-well plates, induced with 1 μg/ml tetracycline, and grown to confluence over 72 h at 37°C. […] Then, the cell-associated radioactivity of the respective tritium-labeled substrate or ligand was quantified by liquid scintillation counting using MicroScint-20 scintillation cocktail (Revvity) in a Packard Microplate Scintillation Counter TopCount NXT (Packard Instrument Company). […] Finally, all net transport data were expressed as uptake or binding as % of control. […] From the specific uptake rates, Michaelis Menten Km values were calculated by non-linear regression analysis.

NTCP [3] = target: T2, NTCP; test: [3H]DHEAS transport inhibition assay in NTCP-HEK293 cells; type: cell-based; conditions: 1 μM [3H]DHEAS, 10 min; two independent experiments; read-out: IC50 NTCP [3H]DHEAS uptake
From the text: as §1, §2

NTCP [4] = conditions: cited from earlier work
[5] = cited from earlier work
OATP2B1 = conditions: cited from earlier work

SMILES | Inhibition curves and AUC of NTCP→mAsbt mutant compared to wild-type NTCP [1] | IC50 (NTCP [2]) | IC50 (NTCP [3]) | also measured
CCCCC1(CCCC)CN(c2ccccc2)c2cc(SC)c(OCC(=O)N[C@@H](C(=O)NCC(=O)O)c3ccccc3)cc2S(=O)(=O)C1 [elobixibat] | did not significantly change | 19.2 µM and 11.9 µM | 11.7 µM and 11.1 µM | IC50 (NTCP [4]; ref PMDA Goofice Report on the Deliberation Results, read-out: IC50 NTCP inhibition): 0.24 µM; Cmax, clinical drug concentration ([5]; 15 mg cohort study, ref PMDA Goofice report): Elobixibat clinical drug concentration in the 15 mg cohort study: Cmax = 0.39 ng/ml.
CCCC[C@]1(CC)CS(=O)(=O)c2cc(CNC(CC(=O)O)CC(=O)O)c(OC)cc2[C@@H](c2ccccc2)N1 [linerixibat] | still inactive | – | – | Substrate of OATP2B1 (OATP2B1): is not a substrate
CCCCC1(CCCC)CS(=O)(=O)c2ccc(N(C)C)cc2[C@@H](c2ccc(OCCCC[N+]34CCN(CC3)CC4)cc2)[C@H]1O [SC-435] | still inactive | – | – | –

Further lines, with some results ahead:

Inhibition curves and AUC of NTCP→mAsbt mutant compared to wild-type NTCP [1] | IC50 (NTCP [2]) | IC50 (NTCP [3]) | SMILES | also measured
did not significantly change | – | – | CCCCC1(CCCC)CS(=O)(=O)c2ccc(N(C)C)cc2[C@@H](c2ccc(OCc3ccc(C[N+]45CCN(CC4)CC5)cc3)cc2)[C@H]1O [maralixibat] | Inhibition of NTCP (NTCP [4]; 50 μM, NTCP expressed in CHO cells, ref FDA NDA 214662 Livmarli): Maralixibat at 50 μM produced 5% inhibition of NTCP expressed in CHO cells.; Cmax, clinical drug concentration ([5]; 45 mg cohort study, fasted, ref EMA Livmarli assessment report variation): 1.62 ng/mL; Cmax, clinical drug concentration ([5]; 45 mg cohort study, fed, ref EMA Livmarli assessment report variation): 0.57 ng/mL; OATP2B1 inhibition (in words) (OATP2B1; in vitro studies, ref EMA EPAR Product Information Maralixibat): Maralixibat is an OATP2B1 inhibitor based on in vitro studies. No potential for clinically relevant drug-drug interactions (DDI), but theoretical risk of interaction with substrates of this carrier.; IC50 (OATP2B1; in vitro, ref FDA NDA 214662 Livmarli, read-out: IC50 OATP2B1 inhibition): 1.02 µM
did not significantly change | 6.6 µM and 5.4 µM | 8.7 µM and 5.5 µM | CCCCC1(CCCC)CN(c2ccccc2)c2cc(SC)c(OCC(=O)N[C@@H](C(=O)N[C@@H](CC)C(=O)O)c3ccc(O)cc3)cc2S(=O)(=O)N1 [odevixibat] | Cmax, clinical drug concentration ([5]; 120 μg/kg/day cohort study, ref FDA (URL EMA Bylvay product information)): Odevixibat clinical drug concentration in the 120 μg/kg/day cohort study: Cmax = 0.62 ng/ml.
